Assay results from PubChem BioAssay (NCI).
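Cells were grown in 96-well plates and exposed to each compound for 48 hours at five concentrations; endpoints were interpolated linearly between bracketing concentrations, or set to the highest concentration if not reached. Abbreviation: GI50, concentration required for 50% inhibition of growth. TGI: total growth inhibition.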

What was measured:
Test in all cases: NCI anticancer screen, dose series, 48 h
[1] = test system: OVCAR-4 ovarian
[2] = test system: A549 NSCLC
[3] = test system: MALME-3M melanoma
[4] = test system: UACC-257 melanoma
[5] = test system: HCT-15 colon
[6] = test system: HOP-92 NSCLC
[7] = test system: UACC-62 melanoma
[8] = test system: SK-MEL-28 melanoma
[9] = test system: CAKI-1 renal
[10] = test system: NCI/ADR-RES ovarian

| Structure (SMILES) | TGI [1] | TGI [2] | TGI [3] | TGI [4] | TGI [5] | TGI [6] | TGI [7] | TGI [8] | TGI [9] | TGI [10] | GI50 [1] | GI50 [10] | GI50 [2] | GI50 [3] | GI50 [4] | GI50 [5] | GI50 [6] | GI50 [7] | GI50 [9] | GI50 [8] |
| --- | --- | --- | --- | --- | --- | --- | --- | --- | --- | --- | --- | --- | --- | --- | --- | --- | --- | --- | --- | --- |
| COc1ccc(Cc2c(=O)[nH]nc3ccccc23)cc1 | > 100 µM | > 100 µM | > 100 µM | > 100 µM | > 100 µM | > 100 µM | > 100 µM | > 100 µM | > 100 µM |  |  |  |  |  |  |  |  |  |  |  |
| CCc1nc(N)nc(N)c1-c1ccc2nnn(O)c2c1 | > 100 µM | > 100 µM |  | > 100 µM | > 100 µM | > 100 µM | > 100 µM | > 100 µM | > 100 µM | > 100 µM |  |  |  |  |  |  |  |  |  |  |
| Cc1nn2c(nc1=O)sc1ccc3ccccc3c12 | > 100 µM | > 100 µM | > 100 µM | > 100 µM | > 100 µM | > 100 µM | > 100 µM | > 100 µM | > 100 µM |  |  |  |  |  |  |  |  |  |  |  |
| CCCCCCCCCCCC(=O)N1CCN(C(C)=O)CC1 | > 100 µM | > 100 µM | 52.9 µM | 36.9 µM | > 100 µM | 27.4 µM | 34.9 µM |  | 38.9 µM | 72.6 µM | 32.8 µM | 25.9 µM | 28 µM | 26.9 µM | 19.4 µM | 40.2 µM | 11.5 µM | 19.7 µM | 19.9 µM |  |
| CCOC(=O)c1cc(C(=O)c2cc(OC)c(OC)c(OC)c2)n2c1ccc1ccccc12 |  | > 100 µM | > 100 µM | > 100 µM | > 100 µM | > 100 µM | > 100 µM | > 100 µM | > 100 µM | > 100 µM |  | 0.172 µM | 0.286 µM | 0.634 µM | 2.27 µM | 0.137 µM | 1.43 µM | 0.171 µM | 0.0717 µM | 1.45 µM |
| CC1(Br)CC2OC3(Br)C=CC(C)(O)C2(CC1=O)C3(C)C (stereo unspecified) | > 100 µM | > 100 µM | > 100 µM | > 100 µM | > 100 µM | > 100 µM | > 100 µM | > 100 µM | > 100 µM |  |  |  |  |  |  |  |  |  |  |  |
| O=c1[nH]c(=O)c2cc3cc(C4CC(O)C(CO)O4)ccc3cc2[nH]1 (stereo unspecified) | > 100 µM | > 100 µM |  | > 100 µM | > 100 µM | > 100 µM | > 100 µM | > 100 µM | > 100 µM | > 100 µM | 58.7 µM | > 100 µM | > 100 µM |  | > 100 µM | > 100 µM | > 100 µM | > 100 µM | > 100 µM | > 100 µM |
| O=[N+]([O-])c1cc([N+](=O)[O-])c(/C=C/c2ccc(Cl)c(Cl)c2)cc1/C=C/c1ccc(Cl)c(Cl)c1 | > 100 µM | > 100 µM | 56.3 µM | 51.3 µM | 58.9 µM |  | 79.6 µM | 59.2 µM | > 100 µM |  |  |  |  |  |  |  |  |  |  |  |
| O=C(OC1CCC2OOC1O2)c1ccc([N+](=O)[O-])cc1 (stereo unspecified) | > 100 µM | > 100 µM | > 100 µM | > 100 µM | > 100 µM |  | > 100 µM | > 100 µM | > 100 µM |  |  |  |  |  |  |  |  |  |  |  |
